By EC50 is commonly meant the midpoint of the concentration-response curve. For orientation: viability means a read-out of living cells in per cent, often relative to untreated cells.

Here are results for 3 compounds from PMC7567097, “A nanoluciferase SARS-CoV-2 for rapid neutralization testing and screening of anti-infective drugs for COVID-19” (Nature Communications, 2020).

For one data set, the system named is COVID-19. Also noted: method as in PMID 32392282. The settings on record: >1400 patients, compared with no treatment; cited from earlier work.
Data set [1] has as its system SARS-CoV-2-Nluc. As to the kind of experiment: microbe, parasite or virus in culture. It counts as cell-based.
Data set [2] deals with SARS-CoV-2-Nluc. As to the kind of experiment: microbe, parasite or virus in culture. The class given is cell-based. The settings on record: Severe acute respiratory syndrome coronavirus 2, Vero C1008, 48 h.
A short description of data set [3]: Cytotoxicity assay (CCK-8, 72 h) in Vero E6 cells. As to conditions: African green monkey, Vero E6 cells; for viability at 72 h: Vero, two replicates, read-out: cell viability (% of DMSO control). The class given is cell-based, African green monkey.
For the next data set, the system named is Vero E6 cells. Nature of the data set: Cytotoxicity assay (CCK-8, 72 h) in Vero E6 cells. It counts as cell-based, African green monkey. As to conditions: Vero, two replicates.
The nature of another data set: in vitro. As to conditions: human; for viability: cell viability (% of DMSO control).

Several values for one entry are separate records, joined by “and”; a condition that tells them apart may be missing. Identical values can stand only once. Like-named read-outs stand apart in the source and are kept apart here.

For `CC[C@H]1OC(=O)[C@H](C)[C@@H](O[C@H]2C[C@@](C)(OC)[C@@H](O)[C@H](C)O2)[C@H](C)[C@@H](O[C@@H]2O[C@H](C)C[C@H](N(C)C)[C@H]2O)[C@](C)(O)C[C@@H](C)CN(C)[C@H](C)[C@@H](O)[C@]1(C)O` [azithromycin], in the data set on COVID-19, the “association of treatment with fatality rate among hospitalized patients” value is listed as “not associated with significant differences in fatality rate”.

As to `CCN(CCO)CCCC(C)Nc1ccnc2cc(Cl)ccc12` (stereo not drawn) [hydroxychloroquine], the “association of treatment with fatality rate among hospitalized patients” value in the data set with COVID-19 is “not associated with significant differences in fatality rate”.

With `CCN(CC)CCCC(C)Nc1ccnc2cc(Cl)ccc12` (stereo not drawn) [Chloroquine], the EC50 in the data set on SARS-CoV-2-Nluc [1] (Severe acute respiratory syndrome coronavirus 2, 48 h) turned out to be 1.32 ± 0.36 µM; with SARS-CoV-2-Nluc [1] (Severe acute respiratory syndrome coronavirus 2, read-out: EC50 (µM) Replicate 1), 1.06 µM; in the data set with SARS-CoV-2-Nluc [1] (Severe acute respiratory syndrome coronavirus 2, read-out: EC50 (µM) Replicate 2) it was 1.57 µM; in the data set on SARS-CoV-2-Nluc [2], 3520 nM. Moreover, the “cell viability (% of DMSO control)” value is 94.76% in the data set on A549-hACE2 cells (Concentration 0.00152416); 100.03% with A549-hACE2 cells (Concentration 0.00457247); 97.21% in the data set on A549-hACE2 cells (Concentration 0.0137174); 100.16% with A549-hACE2 cells (Concentration 0.0411523); 98.53% in the data set on A549-hACE2 cells (Concentration 0.123457); 99.78% in the data set on A549-hACE2 cells (Concentration 0.37037). Moreover, the “cell viability (% of DMSO control)” value in the data set with A549-hACE2 cells (Concentration 1.11111) stood at 100.72%; in the data set with A549-hACE2 cells (Concentration 3.33333), 101.54%; in the data set with A549-hACE2 cells (Concentration 10), 101.98%; with Vero E6 cells (Concentration 0.00152416) it was 109.35%; with Vero E6 cells (Concentration 0.00457247) it was 115.44%; with Vero E6 cells (Concentration 0.0137174), 94.62%. Further, the “cell viability (% of DMSO control)” value in the data set on Vero E6 cells (Concentration 0.0411523) is 86.94% and 111.97%; in the data set with Vero E6 cells (Concentration 0.123457), 83.36%; in the data set on Vero E6 cells (Concentration 0.37037), 78.26%; in the data set on Vero E6 cells (Concentration 1.11111), 94.9%; with Vero E6 cells (Concentration 3.33333), 72.03%; with Vero E6 cells (Concentration 10), 73.87%. For the same compound, the viability at 72 h in data set [3] (Concentration 0.00152416) amounted to 112%; in data set [3] (Concentration 0.00457247), 113%; in data set [3] (Concentration 0.0137174), 100%; in data set [3] (Concentration 0.123457), 83.5%; in data set [3] (Concentration 0.37037), 80.1%; in data set [3] (Concentration 1.11111) it was 81.4%. Also, the viability at 72 h worked out at 75.3% in data set [3] (Concentration 3.33333) and 76.5% in data set [3] (Concentration 10). The compound further had a CC50 at 72 h in data set [3] (3-day cytotoxicity) above 50000 nM. In addition, the CC50 in the data set “in vitro” (CC50), in “in vitro” (CC50 (µM) Replicate 1) and in “in vitro” (CC50 (µM) Replicate 2) was above 50 µM each time. Besides, the viability in “in vitro” (Concentration 0.00152416) stood at 105%; in the data set “in vitro” (Concentration 0.00457247) it was 106%; in the data set “in vitro” (Concentration 0.0137174) it was 103%; in “in vitro” (Concentration 0.0411523) it was 104%; in “in vitro” (Concentration 0.123457), 105%; in “in vitro” (Concentration 0.37037) it was 104%. Also, the viability in the data set “in vitro” (Concentration 1.11111) was 104%; in “in vitro” (Concentration 3.33333) it was 104%; in the data set “in vitro” (Concentration 10) it was 108%.
